Reference: US20030144190A1, “Method of modulating and antiapoptotic and antiapoptotic pathways in cells” (priority 2003, published 2003)

System: CREF/RasV12
Experiment: Apoptosis by flow cytometry (cells with hypodiploid DNA content) in Ras-transformed fibroblasts
Format: cell-based, rat

C[C@@H]1C[C@@H]([C@H](O)CC2CC(=O)NC(=O)C2)C(=O)[C@@H](C)C1 [cycloheximide]
lovastatin-induced apoptosis in the presence of translational inhibitors: blocked apoptosis

CC[C@H](C)C(=O)O[C@H]1C[C@@H](C)C=C2C=C[C@H](C)[C@H](CC[C@@H]3C[C@@H](O)CC(=O)O3)[C@H]21 [lovastatin]
apoptosis observed in the presence of lovastatin alone (5 μM lovastatin, 24 h): 2 to 8%
